Like-named read-outs stand apart in the source and are kept apart here.
Columns and labels:
HepG2 cell line = test: MTT anti-proliferative assay, HepG2; type: cell-based, human; settings: mean ± S.D., 3 separate experiments
Experimental: (§1) 1. Anti-proliferative activity against HepG2 and PANC1 cancer cell lines
(§2) American Type Culture Collection (ATCC). Cells lines were maintained as monolayers in Dulbecco’s Modified Eagle’s Medium (DMEM) supplemented with 10% FBS, 2 mM L-glutamine, 100 U/ml penicillin and 100µg/ml streptomycin sulfate. Cells were sub-cultured with trypsine /EDTA solution, counted with haemocytometer and plated onto 96-well plates (5000 cells/well) and left overnight to form a semi-confluent monolayer. Cell monolayers were treated in quadrates with vehicle (DMSO, 0.1% v/v), and test samples […]
(§3) end of exposure, MTT solution in PBS (5 mg/ml) was then added to all well including no cell blank and left to incubate for 90 min. The formation of formazan crystals were visually confirmed using phase contract microscopy. DMSO (100 µl/well) was added to dissolve the formazan crystals with shaking for 10 min after which the absorbance was read at 590 nm against no cell blanks on a FLuo Star Optima microplate reader (BMG technologies, Germany). Cell proliferation was calculated comparing the OD values of the DMSO control wells and those of the samples represented as % proliferation to the control. Dose-response experiment was performed on samples producing > or =50% loss of cell proliferation using five serial 2-fold dilutions (50, 25, 12.5, 6.25 and 3.125 µM) of the […]
(§4) vehicle control) were calculated using non-linear regression curve fitting of the dose response plots on GraphPad Prism V.6.0 software.

PANC1 cell line = test: MTT anti-proliferative assay, PANC1; type: cell-based, human; settings: for IC50: MTT, 48 h exposure, mean ± S.D., 3 separate experiments
Experimental: as §1, §2
as §3, with “cell” for “cell proliferation using five serial 2-fold dilutions (50, 25, 12.5, 6.25 and 3.125 µM) of the”
as §4

Vero cell line = test: Cytotoxicity against non-tumorigenic Vero cell line; type: cell-based; settings: read-out: IC50 Vero (cytotoxic activity)
[1] = as above; type: cell-based; settings: African green monkey, Vero cells (non-tumorigenic), read-out: IC50 Vero (cytotoxic activity)
VEGFR-2 [2] = biological target: T1, VEGFR-2 (Homo sapiens, UniProt P35968); test: biochemical
T1 sequence (P35968 20-1356): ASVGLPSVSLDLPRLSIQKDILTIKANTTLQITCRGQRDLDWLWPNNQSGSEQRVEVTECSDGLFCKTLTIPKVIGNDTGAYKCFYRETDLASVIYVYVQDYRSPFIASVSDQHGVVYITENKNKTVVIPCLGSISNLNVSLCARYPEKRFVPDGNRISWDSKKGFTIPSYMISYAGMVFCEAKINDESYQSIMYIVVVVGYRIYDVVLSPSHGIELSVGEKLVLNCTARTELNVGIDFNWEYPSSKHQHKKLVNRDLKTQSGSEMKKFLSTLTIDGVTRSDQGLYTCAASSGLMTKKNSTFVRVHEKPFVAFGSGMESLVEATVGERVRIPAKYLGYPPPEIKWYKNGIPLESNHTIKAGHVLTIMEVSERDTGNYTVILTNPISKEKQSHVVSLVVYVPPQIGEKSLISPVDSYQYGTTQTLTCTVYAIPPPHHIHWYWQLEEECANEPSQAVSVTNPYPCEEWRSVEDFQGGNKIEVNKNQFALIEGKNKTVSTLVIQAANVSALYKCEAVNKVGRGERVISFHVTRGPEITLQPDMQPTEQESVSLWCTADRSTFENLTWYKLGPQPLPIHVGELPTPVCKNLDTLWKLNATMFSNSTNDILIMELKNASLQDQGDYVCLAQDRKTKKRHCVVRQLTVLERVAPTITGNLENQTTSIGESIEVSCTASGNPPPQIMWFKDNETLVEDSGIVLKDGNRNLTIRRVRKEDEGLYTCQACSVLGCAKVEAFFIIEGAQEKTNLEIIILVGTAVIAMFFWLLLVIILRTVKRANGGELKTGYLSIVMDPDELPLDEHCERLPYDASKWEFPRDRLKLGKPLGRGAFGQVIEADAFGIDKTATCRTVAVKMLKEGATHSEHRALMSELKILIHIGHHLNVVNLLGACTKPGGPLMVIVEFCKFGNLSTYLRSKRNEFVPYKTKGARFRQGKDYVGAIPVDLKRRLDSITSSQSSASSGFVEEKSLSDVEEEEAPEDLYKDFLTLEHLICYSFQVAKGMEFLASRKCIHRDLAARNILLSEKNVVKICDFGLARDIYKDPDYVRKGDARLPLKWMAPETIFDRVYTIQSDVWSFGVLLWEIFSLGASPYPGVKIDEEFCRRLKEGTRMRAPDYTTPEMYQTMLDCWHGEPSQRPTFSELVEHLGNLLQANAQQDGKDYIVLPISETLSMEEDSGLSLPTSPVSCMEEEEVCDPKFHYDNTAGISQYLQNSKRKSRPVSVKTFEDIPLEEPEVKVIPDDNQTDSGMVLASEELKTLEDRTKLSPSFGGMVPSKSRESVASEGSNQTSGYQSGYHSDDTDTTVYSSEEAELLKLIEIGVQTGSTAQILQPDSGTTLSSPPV
Experimental: (§5) In brief, the master mixture was produced (25 μL per well) and poured into
(§6) each well. Each well received 5 μL of inhibitor solution designated as "Test Inhibitor". The "Positive Control" and "Blank" groups received 5 μL of the same solution without the
(§7) inhibitor (Inhibitor buffer). In order to prepare 3 mL of kinase buffer, 600 μL of kinase
(§8) buffer were combined with 2400 μL of water. The blank wells received 20 μL of kinase
(§9) buffer. The amount of VEGFR-2 required for the test was measured and the enzyme was
(§10) diluted to 1 ng/ μL with kinase buffer. 20 μL of diluted VEGFR-2 enzymes was added to
(§11) the wells designated as "Test Inhibitor Control” and “Positive Control” to start the reaction
(§12) and the mixtures were incubated at 30 °C for 45 minutes. After the 45 minutes, each well received 50 μL of KinaseGlo Max reagent and the plate was incubated at room temperature
(§13) for 15 minutes. The luminescence was measured with a microplate reader.

VEGFR-2 [3] = biological target: T1, VEGFR-2; design: purchased BPS Bioscience 40325; method as in doi:10.1016/j.molstruc.2021.131832; settings: cited from earlier work
HepG2 = system: HepG2; design: method as in doi:10.1016/j.molstruc.2021.131832; settings: hepatocellular cell line HepG2; cited from earlier work
VEGFR-2 [4] = biological target: T1, VEGFR-2; test: VEGFR-2 Kinase Assay Kit (BPS Bioscience)
Experimental: as §5, §6, §7, §8, §9, §10, §11, §12, §13

VEGFR-2 [5] = biological target: T1, VEGFR-2; design: purchased BPS Bioscience 40325; method as in PMID 35217379; settings: cited from earlier work
[6] = Homo sapiens, HepG2, 48 h exposure

| IC50 (HepG2 cell line; [6]) | IC50 (PANC1 cell line; Homo sapiens, PANC-1) | SMILES | other results |
| --- | --- | --- | --- |
| 1730 ± 60 nM | 170 ± 10 nM | CC(=O)Nc1ccc(-c2nc(C(=O)NN=C3C(=O)Nc4ccc([N+](=O)[O-])cc43)nn2-c2ccc(Cl)cc2)cc1 [11l, N-{4-[1-(4-Chlorophenyl)-3-{N′-[5-nitro-2-oxo-2,3-dihydro-1H-indol-3-ylidene]hydrazinecarbonyl}-1H-1,2,4-triazol-5-yl]phenyl}acetamide] | – |
| 1170 ± 30 nM | 1740 ± 20 nM | CC(=O)Nc1ccc(-c2nc(C(=O)NN=C3C(=O)Nc4ccc(F)cc43)nn2-c2ccc(F)cc2)cc1 [11b, N-[4-(3-{N′-[5-Fluoro-2-oxo-2,3-dihydro-1H-indol-3-ylidene]hydrazinecarbonyl}-1-(4-fluorophenyl)-1H-1,2,4-triazol-5-yl)phenyl]acetamide] | – |
| 920 ± 20 nM | 420 ± 10 nM | CC(=O)Nc1ccc(-c2nc(C(=O)NN=C3C(=O)N(Cc4ccccc4)c4ccc(Br)cc43)nn2-c2ccc(Cl)cc2)cc1 [14d, N-[4-(3-{N′-[1-Benzyl-5-bromo-2-oxo-2,3-dihydro-1H-indol-3-ylidene]hydrazinecarbonyl}-1-(4-chlorophenyl)-1H-1,2,4-triazol-5-yl)phenyl]acetamide] | – |
| – | – | COc1cccc2c1C(=O)c1c(O)c3c(c(O)c1C2=O)C[C@@](O)(C(=O)CO)C[C@@H]3O[C@H]1C[C@H](N)[C@H](O)[C@H](C)O1 [Dox., reference compound] | IC50 (HepG2 cell line; 48 h exposure): 430 ± 20 nM; IC50 (PANC1 cell line): 190 ± 10 nM |
| 980 nM | 760 ± 40 nM | CC(=O)Nc1ccc(-c2nc(C(=O)NN=C3C(=O)N(Cc4ccccc4)c4ccc(Br)cc43)nn2-c2ccc(F)cc2)cc1 [14b, N-[4-(3-{N′-[1-Benzyl-5-bromo-2-oxo-2,3-dihydro-1H-indol-3-ylidene]hydrazinecarbonyl}-1-(4-fluorophenyl)-1H-1,2,4-triazol-5-yl)phenyl]acetamide] | – |
| 760 ± 20 nM | 2220 ± 70 nM | COc1ccc2c(c1)C(=NNC(=O)c1nc(-c3ccc(NC(C)=O)cc3)n(-c3ccc(F)cc3)n1)C(=O)N2 [11e, N-{4-[1-(4-Fluorophenyl)-3-{N′-[5-methoxy-2-oxo-2,3-dihydro-1H-indol-3-ylidene]hydrazinecarbonyl}-1H-1,2,4-triazol-5-yl]phenyl}acetamide] | IC50 (Vero cell line): 11700 ± 930 nM; IC50 [1]: 8350 ± 620 nM; IC50 (VEGFR-2 [2]): 48.4 ± 0.39 nM |
| 2060 ± 30 nM | 4290 ± 100 nM | CC(=O)Nc1ccc(-c2nc(C(=O)NN=C3C(=O)Nc4ccccc43)nn2-c2ccc(F)cc2)cc1 [11a, N-{4-[1-(4-Fluorophenyl)-3-{N′-[2-oxo-2,3-dihydro-1H-indol-3-ylidene]hydrazinecarbonyl}-1H-1,2,4-triazol-5-yl]phenyl}acetamide] | – |
| – | – | CCOC(=O)/C(=N\Nc1ccc(Cl)cc1)Sc1nnc(C(F)(F)F)n1/N=C/c1ccc(OC)cc1 [II] | IC50 (VEGFR-2 [3]): 74 nM; IC50 (HepG2): 10000 nM |
| 1010 ± 20 nM | 1680 ± 60 nM | CC(=O)Nc1ccc(-c2nc(C(=O)NN=C3C(=O)Nc4ccc(Br)cc43)nn2-c2ccc(Cl)cc2)cc1 [11j, N-[4-(3-{N′-[5-Bromo-2-oxo-2,3-dihydro-1H-indol-3-ylidene]hydrazinecarbonyl}-1-(4-chlorophenyl)-1H-1,2,4-triazol-5-yl)phenyl]acetamide] | – |
| 1630 ± 20 nM | 4050 ± 100 nM | CC(=O)Nc1ccc(-c2nc(C(=O)NN=C3C(=O)N(C)c4ccccc43)nn2-c2ccc(F)cc2)cc1 [14a, N-{4-[1-(4-Fluorophenyl)-3-{N′-[1-methyl-2-oxo-2,3-dihydro-1H-indol-3-ylidene]hydrazinecarbonyl}-1H-1,2,4-triazol-5-yl]phenyl}acetamide] | – |
| 580 ± 10 nM | 200 nM | CC(=O)Nc1ccc(-c2nc(C(=O)NN=C3C(=O)N(C)c4ccccc43)nn2-c2ccc(Cl)cc2)cc1 [14c, N-{4-[1-(4-Chlorophenyl)-3-{N′-[1-methyl-2-oxo-2,3-dihydro-1H-indol-3-ylidene]hydrazinecarbonyl}-1H-1,2,4-triazol-5-yl]phenyl}acetamide] | IC50 [1]: 7920 ± 480 nM |
| 4490 ± 150 nM | 3750 ± 90 nM | CC(=O)Nc1ccc(-c2nc(C(=O)NN=C3C(=O)Nc4ccc(Cl)cc43)nn2-c2ccc(Cl)cc2)cc1 [11i, N-[4-(3-{N′-[5-Chloro-2-oxo-2,3-dihydro-1H-indol-3-ylidene]hydrazinecarbonyl}-1-(4-chlorophenyl)-1H-1,2,4-triazol-5-yl)phenyl]acetamide] | – |
| 730 ± 20 nM | 1160 ± 20 nM | CC(=O)Nc1ccc(-c2nc(C(=O)NN=C3C(=O)Nc4ccc(Br)cc43)nn2-c2ccc(F)cc2)cc1 [11d, N-[4-(3-{N′-[5-Bromo-2-oxo-2,3-dihydro-1H-indol-3-ylidene]hydrazinecarbonyl}-1-(4-fluorophenyl)-1H-1,2,4-triazol-5-yl)phenyl]acetamide] | IC50 (Vero cell line): 8350 ± 620 nM; IC50 [1]: 11700 ± 930 nM; fold enhancement of efficacy against VEGFR-2 compared to 11e (VEGFR-2 [4]; 5-Br versus 5-OCH3 (11e)): approximately 3 fold; IC50 (VEGFR-2 [2]): 16.3 ± 0.42 nM |
| – | – | Cc1ccc(NC(=O)CSc2nnc(Cn3c(=O)c(C)nc4ccccc43)n2C)cc1 [I] | IC50 (VEGFR-2 [5]): 60 nM |
| 1270 ± 40 nM | 220 ± 10 nM | CC(=O)Nc1ccc(-c2nc(C(=O)NN=C3C(=O)Nc4ccc(F)cc43)nn2-c2ccc(Cl)cc2)cc1 [11h, N-{4-[1-(4-Chlorophenyl)-3-{N′-[5-fluoro-2-oxo-2,3-dihydro-1H-indol-3-ylidene]hydrazinecarbonyl}-1H-1,2,4-triazol-5-yl]phenyl}acetamide] | melting point: > 300 °C; fold improvement of efficacy against PANC1 compared to 11b (PANC1 cell line; versus fluorinated-phenyl counterpart 11b): 8 fold |
| 730 ± 10 nM | 1780 ± 40 nM | COc1ccc2c(c1)C(=NNC(=O)c1nc(-c3ccc(NC(C)=O)cc3)n(-c3ccc(Cl)cc3)n1)C(=O)N2 [11k, N-{4-[1-(4-Chlorophenyl)-3-{N′-[5-methoxy-2-oxo-2,3-dihydro-1H-indol-3-ylidene]hydrazinecarbonyl}-1H-1,2,4-triazol-5-yl]phenyl}acetamide] | IC50 [1]: 13200 ± 1090 nM; times increase of VEGFR-2 activity compared to 11g (VEGFR-2 [4]; versus unsubstituted indolin-2-one 11g): approximately 3 times; IC50 (VEGFR-2 [2]): 41.3 ± 0.31 nM |
| 2210 ± 30 nM | 980 ± 60 nM | CC(=O)Nc1ccc(-c2nc(C(=O)NN=C3C(=O)Nc4ccc(Cl)cc43)nn2-c2ccc(F)cc2)cc1 [11c, N-[4-(3-{N′-[5-Chloro-2-oxo-2,3-dihydro-1H-indol-3-ylidene]hydrazinecarbonyl}-1-(4-fluorophenyl)-1H-1,2,4-triazol-5-yl)phenyl]acetamide] | – |
| 2410 ± 40 nM | 230 ± 10 nM | CC(=O)Nc1ccc(-c2nc(C(=O)NN=C3C(=O)Nc4ccc([N+](=O)[O-])cc43)nn2-c2ccc(F)cc2)cc1 [11f, N-{4-[1-(4-Fluorophenyl)-3-{N′-[5-nitro-2-oxo-2,3-dihydro-1H-indol-3-ylidene]hydrazinecarbonyl}-1H-1,2,4-triazol-5-yl]phenyl}acetamide] | – |
| 710 ± 10 nM | 770 ± 20 nM | CC(=O)Nc1ccc(-c2nc(C(=O)NN=C3C(=O)Nc4ccccc43)nn2-c2ccc(Cl)cc2)cc1 [11g, N-{4-[1-(4-Chlorophenyl)-3-{N′-[2-oxo-2,3-dihydro-1H-indol-3-ylidene]hydrazinecarbonyl}-1H-1,2,4-triazol-5-yl]phenyl}acetamide] | IC50 [1]: 10600 ± 710 nM |

From publication PMC10820444, “1,2,4-Triazole-Tethered Indolinones as New Cancer-Fighting Small Molecules Targeting VEGFR-2: Synthesis, Biological Evaluations and Molecular Docking” (Pharmaceuticals, 2024)
